In ChEMBL document CHEMBL1133467, “Identification of novel inhibitors of urokinase via NMR-based screening” (J Med Chem, 2000):

Experiments:
[1] = target: Urokinase-type plasminogen activator (Homo sapiens, UniProt P00749); experiment: Inhibitory activity against Urokinase-type plasminogen activator
[2] = Acid dissociation constant (pKa) of the compound; type: physicochemical

Row | IC50 [1] [µM] | pKa [2] | Compound
1 | 7 | 11.4 | N=C(N)c1ccc(N)cc1
2 |  | 7.4 | Nc1nc2cc(O)ccc2[nH]1
3 | 200 | 7.5 | Nc1nc2ccccc2[nH]1
4 | 20 | 10.9 | N=C(N)Nc1ccccc1 [PHENYLGUANIDINE]
